Tests used:
[1] = test system: intracytoplasmic calcium in HCE-T cells; assay: Fura 2 fluorescence measurement of [Ca^2+]i in HCE-T cell suspension; format: cell-based, human; details: LPA1/3 receptor antagonist
Description: Particularly, according to a method such as Jrgensen and the like, HCE-T cells (1 to 2×10^6 cell/ml) were mixed in […] Fura 2-AM while being shaken for 30 minutes at a 37° C. incubator by using a Ca^2+-containing buffer (pH 7.4) consisting of NaCl 120 mM, KCl 5 mM, MgCl2 1 mM, CaCl2 1.5 mM, glucose 10 mM, and HEPES 25 mM and a Ca^2+-free buffer (pH 7.4) consisting of NaCl 120 mM, KCl 5 mM, MgCl2 1 mM, EGTA 0.2 mM, glucose 10 mM, and HEPES 25 mM, and an excessive amount of fura-2 was removed by washing the cells with the Ca^2+ buffer or the Ca^2+-free buffer three times.
[Ca^2+]i was estimated in the Fura 2-loaded cells by using a RF-5300PC intracellular ion measurement system (Shimadzu Corporation, Japan). […] Excitation wavelengths were alternated between 340 and […] under a computer control and emission was detected at 510. […]
A measured ratio value of 340:380 was converted to a value of [Ca^2+]i by using Equation of Hounsell and the like (Hounsell, E. F., Davies, M. J., and Smith, K. D. (1997) Protein protocol handbook, Humanna press, Totawa, 803-804). […] Further, Sf380 and Sb380 are fluorescence intensity at 380 nm when adding digitonin and EGTA and the ratios are maximum and minimum values when these values are indicated (Grynkiewicz, G., M. Poenie, and R. Y. Tsien. (1985) J Biol Chem 260: 3440-3450).

[2] = test system: human corneal epithelial-T (HCE-T) cells; assay: Scratch wound healing / cell migration in HCE-T cells; format: cell-based; details: Ki16425 treated before gintonin
Description: HCE-T cells (RCB-2280) were purchased from a Riken cell bank. The HCE-T cells were cultured in a medium in which 10% FCS was contained in a DMEM-Ham F12 (1:1) medium (Araki-sasaki et al., Investigative Ophthalmology and Visual Science 36, 614-621, 1995; Arakisasaki et al., J cellular Physiol. 182, 189-195, 2000).
HCE-T (2.5×10^5/well) was planted in a 24-well plate and cultured for 24 hrs and then cultured for 6 hrs in a 0.2% FBS-containing DMEM medium again. The wound was made by drawing a line through the center of each well where cells grew by using a […] pipette tip and then the floating cells were washed twice with a 1% FBS-containing DMEM medium to be removed.
The cells were treated with 0.03 to 1 μg/ml of gintonin and cultured and compared with cells without treating gintonin by observing and photographing (100×) cell shapes before and after gintonin treatment of each well with an inverted fluorescence microscope (AxioVert200; Carl Zeiss).
For the analysis of the degree of cell growth in a part wounded with the pipette tip, an area of the wound part where cells were not recovered was measured using AxioVision.

For `Cc1noc(-c2ccc(CSCCC(=O)O)cc2)c1NC(=O)OC(C)c1ccccc1Cl` (centres unmarked) [Ki16425], the “Effect of antagonist on increase in intracytoplasmic calcium by gintonin” value [1] was “blocked” and the “Effect of antagonist pretreatment on gintonin-promoted cell migration” value [2] was “the action of the gintonin is inhibited”.

Source: US10568931B2, “Pharmaceutical composition comprising ginseng extracts for prevention and treatment of ophthalmological diseases” (GINTONIN KU BIOTECH Co., Ltd., priority 2017, dated 2020)
